Reference: patent publication US20110238319A1, “METHOD OF DIAGNOSING A RESPIRATORY DISEASE” (priority 2008, published 2011)

Experiments:
guinea pigs [1] = experiment: Lung lavage total and differential cell counts; assay type: in vivo, guinea pig
Experimental: (§1) Animals were sacrificed with an overdose of urethane (3 gm/kg i.v.). Cytosmear for total and differential cell counts (Diff-Quik®, Baxter Healthcare Corp) were performed on lung lavage ^17. The lungs were removed, inflated and fixed in 3.7% formaldehyde for 24 hours. Airway sections were stained with 2% chromotrope 2R to determine the average number of eosinophils per 10 high power field (#/hpf) as previously described^20.
(§2) A P-value of 0.05 was considered significant.

guinea pigs [2] = experiment: Eosinophil count in cartilaginous airways (histology); assay type: in vivo, guinea pig; conditions: challengeddex vs challenged
Experimental: as §1, §2

[3] = Urine metabolite concentrations by 1H-NMR (Chenomx, PLS-DA); assay type: in vivo, guinea pig; conditions: for urine Fumarate concentration / urine Glycolate concentration / urine Trimethylamine concentration: mean (STD) per title
Experimental: Regarding animal urine data: under anaesthesia, but before performing airway inflammatory measurements, urine samples (1.0-2.0 cc) were collected by trans-abdominal cystocentesis. Regarding human urine data: midstream urine samples were collected in standard 50 ml specimen containers and promptly placed in a freezer at the outpatient clinic (−20° C.).
Within 3 hours each the urine sample was moved to the −80° C. freezer at NANUC (National High Field NMR Centre), University of Alberta. To determine the NMR spectra, the samples were thawed in a biosafety fume hood and a […] aliquot was removed and placed in a 1.5 ml Eppendorff tube followed by the addition of […] of a reference buffer solution (4.9 mM DSS (disodium-2, 2-dimethyl 2-silapentane-5-sulphonate) and 100 mM imidazole in D2O, Sigma-Aldrich). Each sample was brought to a pH of 7.0 +/-0.1 using HCl and NaOH. An uncentrifuged aliquot of 600 μl was taken and transferred to a standard 5 mm glass NMR tube (Wilmad, N.J.). ^1H-NMR spectra were acquired on a 600 MHz Inova spectrometer (Varian Inc, Palo Alto, Calif.) equipped with a 5 mm triple-resonance (HCN) probe with z-axis gradient coil. One-dimensional ^1H-NMR spectra were collected at 25° C. with a tnnoesy pulse sequence (one-dimensional, three pulse NOESY, with a transmitter pre-saturation delay of 900 ms for water suppression during the pre-acquisition delay and 100 ms mixing time) and a spectral width of 7200 Hz. The time-domain data points were 64k complex points, acquisition time was 4s, 90° pulse was 6.8 μs, repetition time was 5 s, with four steady state scans, and 32 acquired scans per FID (Free Induction Decay). The data were apodized with an exponential window function corresponding to a line broadening of 0.5 Hz, zero-filled to 128 k complex points, and Fourier transformed^22.
Quantification of 50-70 easily identifiable metabolites involved in various relevant metabolic pathways was performed using Chenomx NMR Suite Professional software package Version 3.1 (Chenomx Inc., Edmonton, AB)^23. The software contains a database of known metabolites with their referenced spectral resonant frequencies or signatures. The software allows matching of these known resonant frequencies with the observed resonant frequencies of the collected spectra, enabling the qualitative and quantitative analysis of metabolites in urine NMR spectra (FIG. 1A). The methyl groups from DSS produce a resonant singlet, which served as internal standard for spectral chemical shifts (set to 0 ppm) and for quantification. The internal DSS signal was also utilized as the concentration reference (0.49 mM). To correct for dilution, metabolite concentrations were referenced against urinary creatinine^24. This method is capable of providing metabolite concentration accuracies in excess of 90%^23, 25.
To separate groups of animals or patients based on urine metabolite concentrations, the values of the 50-70 metabolite concentrations for each animal/child were log transformed and imported to SIMCA software (SIMCA-P 11, Umetrics, USA). […] To appreciate the impact of a lower concentration metabolite in the model, equal to the change in an abundant metabolite, the methods must detect the relative change in concentration. Thus, metabolite concentrations were mean-centered followed by unit variance scaling (or z-scoring). Thereafter, partial least squares discriminant analysis (PLS-DA) was performed (SIMCA-P 11). PLS-DA determines the relationship between the response vector Y (i.e. subject group) and the matrix X (concentration of each metabolite) by simultaneous projections of both Y and X spaces to a plane. Then seven fold internal crossvalidation was performed by dividing the data into seven parts (by default) and each 1/7th in turn was removed.

guinea pigs [4] = test system: guinea pigs
Experimental: Female Dunkin-Hartley guinea pigs (GP) were used (specific pathogen-free, 180-450 g, Charles River Laboratories, Saint-Constant, Canada) in accordance with standards established by the University of Alberta Health Sciences Animal Policy and Welfare Committee and Guidelines of the Canadian Council on Animal Care. All guinea pigs were allowed to adapt to the new environment for at least one week before physiologic studies. […] Airway function and inflammation were assessed four days after OVA challenge or 21 days after sensitization alone.
Guinea Pigs were anesthetized with urethane (1.5 g/kg i.p.), tracheostomized, and ventilated after paralysis with succinylcholine chloride (Sigma-Aldrich) (10 μg/kg/min, i.v.). Pulmonary inflation pressure (Ppi) was measured using (Powerlab, Adlnstruments, Colorado Springs, USA) as previously described^17. […] The resulting bronchoconstriction was recorded as increases in Ppi.
The results are expressed as mean and standard error of the mean (SEM) and standard deviation (SD) respectively. A P-value of 0.05 was considered significant.

## C[C@@H]1C[C@H]2[C@@H]3CCC4=CC(=O)C=C[C@]4(C)[C@@]3(F)[C@@H](O)C[C@]2(C)[C@@]1(O)C(=O)CO [Dex, dexamethasone]
Guinea pigs [1]; challengeddex vs challenged
  total cells in lung lavage: remained higher similar to challenge
Guinea pigs [1]; challengeddex vs challenged, p<0.05
  lymphocytes in lung lavage: significantly lower
Guinea pigs [1]; controldex vs control and sensitized, dexamethasone 6.5 μg/kg i.p. daily for three days
  total cell counts in lung lavage: no significant difference
Guinea pigs [1]; controldex vs control, p=0.03
  macrophage values in lung lavage: higher compared with control
Guinea pigs [2]
  eosinophils in cartilaginous airways: remained similar to challenged
[3]; Challenged/Dex group (n = 12)
  urine 1-Methyl-Histamine concentration: 0.044(0.002-0.055) mmol/mmol creatinine
  urine 2-OH-Isobutyrate concentration: 0.043(0.031-0.061) mmol/mmol creatinine
  urine 2-Oxoglutarate concentration: 0.006(0.005-0.012) mmol/mmol creatinine
  urine 3-Methyl-Adipate concentration: 0.011(0.009-0.017) mmol/mmol creatinine
  urine 3-OH-3-Methyl-Glutarate concentration: 0.010(0.006-0.014) mmol/mmol creatinine
  urine 3-OH-Butyrate concentration: 0.018(0.013-0.029) mmol/mmol creatinine
  urine 4-Aminohippurate concentration: 0.010(0.005-0.010) mmol/mmol creatinine
  urine 4-OH-Phenylacetate concentration: 0.122(0.068-0.196) mmol/mmol creatinine
  urine 4-Pyridoxate concentration: 0.009(0.005-0.010) mmol/mmol creatinine
  urine Acetate concentration: 0.118(0.081-0.203) mmol/mmol creatinine
  urine Acetoacetate concentration: 0.007(0.005-0.010) mmol/mmol creatinine
  urine Acetone concentration: 0.005(0.003-0.009) mmol/mmol creatinine
  urine Adenosine concentration: 0(0-0.001) mmol/mmol creatinine
  urine Carnitine concentration: 0.010(0.010-0.015) mmol/mmol creatinine
  urine Creatine concentration: 0.026(0.016-0.033) mmol/mmol creatinine
  urine Dimethylamine concentration: 0.122(0.103-0.146) mmol/mmol creatinine
  urine Glucose concentration: 0.155(0.100-0.334) mmol/mmol creatinine
  urine Isobutyrate concentration: 0(0-0) mmol/mmol creatinine
  urine Kynurenate concentration: 0.006(0.004-0.008) mmol/mmol creatinine
  urine Malonate concentration: 0.014(0.010-0.018) mmol/mmol creatinine
  urine Methylamine concentration: 0.033(0.026-0.069) mmol/mmol creatinine
  urine Myolnositol concentration: 0.035(0.020-0.080) mmol/mmol creatinine
  urine Oxalacetate concentration: 0.249(0.197-0.323) mmol/mmol creatinine
  urine Phenylacetylglycine concentration: 0.140(0.095-0.213) mmol/mmol creatinine
  urine Phenylalanine concentration: 0.022(0.016-0.042) mmol/mmol creatinine
  urine Sarcosine concentration: 0.010(0.007-0.016) mmol/mmol creatinine
  urine Succinate concentration: 0.006(0.005-0.008) mmol/mmol creatinine
  urine Trigonelline concentration: 0.069(0.063-0.091) mmol/mmol creatinine
  urine Trimethyl-N-Oxide concentration: 0.045(0.027-0.062) mmol/mmol creatinine
  urine Tyrosine concentration: 0.024(0.016-0.032) mmol/mmol creatinine
  urine Fumarate concentration: 0(0-0) mmol/mmol creatinine
  urine Glycolate concentration: 0(0-0) mmol/mmol creatinine
  urine Trimethylamine concentration: 0(0-0) mmol/mmol creatinine
[3]; Control/Dex group (n = 4)
  urine 1-Methyl-Histamine concentration: 0.015(0.008-0.023) mmol/mmol creatinine
  urine 2-OH-Isobutyrate concentration: 0.043(0.038-0.045) mmol/mmol creatinine
  urine 2-Oxoglutarate concentration: 0.004(0.003-0.005) mmol/mmol creatinine
  urine 3-Methyl-Adipate concentration: 0.015(0.008-0.018) mmol/mmol creatinine
  urine 3-OH-3-Methyl-Glutarate concentration: 0.004(0.003-0.005) mmol/mmol creatinine
  urine 3-OH-Butyrate concentration: 0.041(0.029-0.048) mmol/mmol creatinine
  urine 4-Aminohippurate concentration: 0.090(0.040-0.115) mmol/mmol creatinine
  urine 4-OH-Phenylacetate concentration: 0.101(0.095-0.130) mmol/mmol creatinine
  urine 4-Pyridoxate concentration: 0.004(0.003-0.005) mmol/mmol creatinine
  urine Acetate concentration: 0.137(0.098-0.180) mmol/mmol creatinine
  urine Acetoacetate concentration: 0.011(0.009-0.012) mmol/mmol creatinine
  urine Acetone concentration: 0.004(0.003-0.005) mmol/mmol creatinine
  urine Adenosine concentration: 0.002(0-0.003) mmol/mmol creatinine
  urine Carnitine concentration: 0.140(0.120-0.175) mmol/mmol creatinine
  urine Creatine concentration: 0.039(0.035-0.045) mmol/mmol creatinine
  urine Dimethylamine concentration: 0.096(0.087-0.110) mmol/mmol creatinine
  urine Isobutyrate concentration: 0(0-0.50) mmol/mmol creatinine
  urine Kynurenate concentration: 0.005(0.004-0.010) mmol/mmol creatinine
  urine Malonate concentration: 0.016(0.011-0.020) mmol/mmol creatinine
  urine Methylamine concentration: 0.009(0.009-0.014) mmol/mmol creatinine
  urine Myolnositol concentration: 0.410(0.380-0.570) mmol/mmol creatinine
  urine Oxalacetate concentration: 0.237(0.228-0.247) mmol/mmol creatinine
  urine Phenylacetylglycine concentration: 0.024(0.022-0.026) mmol/mmol creatinine
  urine Phenylalanine concentration: 0.011(0.009-0.013) mmol/mmol creatinine
  urine Sarcosine concentration: 0.004(0.003-0.005) mmol/mmol creatinine
  urine Succinate concentration: 0.013(0.011-0.014) mmol/mmol creatinine
  urine Succinylacetone concentration: 0.004(0.003-0.005) mmol/mmol creatinine
  urine Trigonelline concentration: 0.053(0.044-0.059) mmol/mmol creatinine
  urine Trimethyl-N-Oxide concentration: 0.089(0.076-0.107) mmol/mmol creatinine
  urine Tyrosine concentration: 0.027(0.016-0.042) mmol/mmol creatinine
  urine Fumarate concentration: 0(0-0) mmol/mmol creatinine
  urine Glycolate concentration: 0(0-0) mmol/mmol creatinine
  urine Trimethylamine concentration: 0(0-0) mmol/mmol creatinine
[3]; challenged animals after dexamethasone treatment
  urine phenylacetylglycine level: returned to control levels
[3]; challenged guinea pig after steroid treatment
  urine sarcosine level: decreased
[3]; challenged vs challengeddex, control vs controldex
  urine metabolite profile by PLS-DA: altered urine metabolite profile
[3]; challengeddex among guinea pig groups
  urine myo-inositol level: highest
[3]; challengeddex vs challenged
  urinary excretion of 2-hydroxyisobutyrate: levels rose
  urinary excretion of glucose: levels rose
[3]; dexamethasone-treated controls vs control
  urine phenylacetylglycine level: significantly lower levels
Guinea pigs [4]; challengeddex compared to challenged alone, dexamethasone 6.5 μg/kg i.p. 1 hour after challenge then daily for two days, p<0.05
  bronchoconstriction response to histamine (Ppi): diminished response

## NCCc1c[nH]cn1 [histamine]
Guinea pigs [4]; histamine 1-20 μg/kg i.v.
  bronchoconstriction measured by increasing Ppi: dose-dependent bronchoconstriction
